Measurements taken from article PMC4310624 (Biochemistry, 2014).

What was measured:
[1] = test system: E. coli DH10B pBCSK control; assay: Disc diffusion assay, control strain; assay type: cell-based, Escherichia coli; details: cephalothin 30 μg and 30 μg of each inhibitor, 37 °C, 18 h
[2] = test system: E. coli DH10B pBCSK SHV-1; assay: Disc diffusion assay, SHV-1 expressing strain; assay type: cell-based, Escherichia coli; details: for zone size of cephalothin combined with the inhibitor: strain expressing SHV-1
[3] = Base hydrolysis in 1 M NaOH followed by Raman spectroscopy; assay type: physicochemical
[4] = molecular target: T1, SHV-1 (Klebsiella pneumoniae, UniProt P0AD64); details: SHV-1, E/I = 1:10, nitrocefin assay
T1 sequence (P0AD64 22-286): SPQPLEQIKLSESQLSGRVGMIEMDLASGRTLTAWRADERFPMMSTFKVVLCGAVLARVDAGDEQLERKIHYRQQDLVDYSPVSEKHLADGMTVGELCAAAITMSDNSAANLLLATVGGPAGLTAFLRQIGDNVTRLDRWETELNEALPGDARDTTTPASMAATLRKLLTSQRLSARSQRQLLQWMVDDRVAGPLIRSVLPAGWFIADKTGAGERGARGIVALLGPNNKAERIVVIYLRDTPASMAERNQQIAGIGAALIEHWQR

[5] = test system: class A or C enzymes; details: ref unpublished screening work, Bethel and Bonomo; cited from earlier work

CC(=O)OCC1=C(C(=O)O)N2C(=O)[C@@H](NC(=O)Cc3cccs3)[C@H]2SC1 [cephalothin]
zone diameter [1]: 34 mm | zone diameter ([2]; cephalothin 30 μg and 30 μg of each inhibitor, 37 °C, 18 h): 6 mm

C[C@]1(Cn2ccnn2)[C@H](C(=O)O)N2C(=O)C[C@H]2S1(=O)=O [tazobactam]
zone size of cephalothin combined with the inhibitor [2]: 16 mm

CC1(C)[C@H](C(=O)O)N2C(=O)C[C@H]2S1(=O)=O [sulbactam]
zone size of cephalothin combined with the inhibitor [2]: 10 mm | time for conversion of imine to cis-enamine ([3]; 1 M NaOH, Raman, all imine converted): 60 min | time to hydrolysis to imine (lactam ring opening, imine maximum) ([3]; 1 M NaOH, room temperature, Raman): less than 3 min | time for iminium ion conversion to cis-enamine ([3]; base hydrolysis, as stated in abstract): 1 h | enzyme activity against nitrocefin after reaction with inhibitor [4]: remained fully active

CC1(C)[C@H](C(=O)O)N2C(=O)[C@@H](CO)[C@H]2S1(=O)=O [6α-(hydroxymethyl)penicillanic acid sulfone]
inhibition in the IC50 or MIC assays [5]: did not show any inhibition
